The test system of data set [1] is VCaP (ERG fusion-positive) xenografts. Kind of data set: VCaP xenograft mouse model, tumor growth.
Description: (§1) Athymic Nude-Foxnlnu male mice were procured from Harlan Laboratories, Inc (Indianapolis, Ind.). All procedures involving mice were approved by the University Committee on Use and Care of Animals (UCUCA) at the University of Michigan and conformed to their relevant regulatory standards. […] Statistical significance for Kaplan-Meier analysis was determined by the log-rank (Mantel-Cox) test.
Athymic Nude-Foxnlnu male mice were procured from Harlan Laboratories, Inc. (Indianapolis, Ind.). VCaP (2×10^6 cells) or PC3 (5×10^5 cells) were resuspended in 100 μl of saline with 50% Matrigel (BD Biosciences, Becton Drive, NJ) and implanted subcutaneously into the flank regions on both sides of the mice. Mice were anesthetized using a cocktail of xylazine (80-120 mg/kg, IP) and ketamine (10 mg/kg, IP) for chemical restraint before tumor cells implantation. For short term assays, all tumors were staged for three weeks before starting peptidomimetic treatment. After week 3 (VCaP cells) or 12 days (PC3 cells), mice (10 per treatment group) were treated with peptidomimetics (25 mg/kg or 10 mg/kg as indicated, IP) daily five times a week.
Tumor growth was recorded every three days using digital calipers and tumor volumes were calculated using the formula (π/6) (L×W2), where L=length of tumor and W=width. Body weight was monitored weekly over the course of the study. At the end of the xenograft studies, mice were anaesthetized and blood was collected by cardiac puncture and tumors were preserved for further biochemical and immunofluorescence analysis. […] Survival analysis was carried out using the GraphPad Prism 4.0 software (GraphPad Software, San Diego, Calif.). Statistical significance for Kaplan-Meier analysis was determined by the log-rank (Mantel-Cox) test. All procedures involving mice were approved by the University Committee on Use and Care of Animals (UCUCA) at the University of Michigan and conform to their relevant regulatory standards.
In data set [2] the target is T1, ERG (Homo sapiens, UniProt P11308).
T1 sequence (P11308 1-479): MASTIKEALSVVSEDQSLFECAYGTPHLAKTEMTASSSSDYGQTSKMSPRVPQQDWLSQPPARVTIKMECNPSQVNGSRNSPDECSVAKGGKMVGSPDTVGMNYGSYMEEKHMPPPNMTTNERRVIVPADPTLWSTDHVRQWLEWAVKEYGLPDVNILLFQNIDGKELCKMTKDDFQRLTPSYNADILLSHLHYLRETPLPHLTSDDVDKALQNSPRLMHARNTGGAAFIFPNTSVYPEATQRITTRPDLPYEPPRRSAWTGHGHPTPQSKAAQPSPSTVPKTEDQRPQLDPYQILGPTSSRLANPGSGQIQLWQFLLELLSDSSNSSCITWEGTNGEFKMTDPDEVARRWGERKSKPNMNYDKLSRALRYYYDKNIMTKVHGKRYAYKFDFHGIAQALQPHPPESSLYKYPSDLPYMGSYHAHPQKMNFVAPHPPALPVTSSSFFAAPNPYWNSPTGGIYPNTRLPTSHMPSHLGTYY
Nature of the data set: ERG:peptide binding by biolayer interferometry (OctetRED). A general note: Biolayer interferometry detects binding as a change in optical thickness at a sensor tip.
Description: The interaction coefficients between ERG and synthetic peptides or peptidomimetics were determined by biolayer interferometry technology using the Octet Red system (ForteBio). Purified ERG and GUS proteins were biotinylated by EZLink NHS-PEG4 Biotinylation Kit (Thermo Scientific) following the manufacturer's protocol and any unincorporated biotin was removed from the reactions with Zeba 2 ml desalt columns (Thermo). Biotinylated proteins (500 μg/ml) were then incubated with super streptavidin biosensors in binding buffer (20 mM HEPES pH 7.4, 150 mM NaCl), blocked with 10 μg/ml biocytin and washed three times in binding buffer. Peptides were serially diluted in binding buffer, mixed with the protein-coupled biosensors and peptidomimetic:protein association/dissociation was monitored for 10 min at 25° C. Nonspecific binding from the signal obtained from peptidomimetic:GUS interactions was subtracted from that of peptidomimetic:ERG interactions and baseline signal drift was controlled by monitoring immobilized ERG without peptide. Octet Red analysis software was used to analyze the data.

In data set [3] the test system is VCaP cells. Further details: species or system chicken embryo. The conditions noted are these: in vivo, 25 mg/kg. On the procedure:
The CAM assays were performed as described previously (Brenner et al., 2011; supra). Briefly, fertilized eggs were incubated in a rotary humidified incubator at 38° C. for 10 days. First the CAM was released by applying mild pressure to the hole over the air sac and cutting a square 1 cm^2 window encompassing a second hole near the allantoic vein. Then cultured VCaP cells that stably express Cherry Red and pre-treated with peptidomimetics as indicated were detached by trypsinization and re-suspended in complete medium and 2×10^6 cells were implanted adjacent to the mesenchyme in each egg. The windows were subsequently sealed and the eggs were returned to a stationary incubator. For invasion and intravasation experiments, implanted eggs were treated with 25 mg/kg body weight of the peptidomimetics 6 hrs after inoculation and both the upper and lower CAM were isolated after 72 hr. Invasive cells were processed and stained for chicken collagen IV as previously described (Brenner et al., 2011; supra). […] The embryonic lungs were harvested and analyzed for the presence of tumor cells by quantitative human alu-specific PCR. […] Quantification of human cells in the extracted DNA was carried out as described (van der Horst et al., Biotechniques 37, 940-942, 944, 946 2004). Fluorogenic TaqMan qPCR probes were used as described above, and DNA copy numbers were quantified.

The subject of data set [4] is ERG and DNA-PKcs enrichment at ERG-regulated genomic loci. It is filed as cell-based. The procedure: VCaP cells were grown in complete medium and treated with peptidomimetics 12 hours prior to harvesting cells. ChIP assays were carried out as previously described (Brenner et al., 2011; supra; Yu et al., 2010; supra) using antibodies against ERG (Santa Cruz, # sc-354), DNA-PKcs (BD Biosciences, #610805), rabbit IgG (Santa Cruz, # sc-2027) or mouse IgG (Santa Cruz, # sc-2025). Briefly, chromatin collected from formaldehyde crosslinked and lysed cells was sonicated to an average length of 600 bp. Supernatants containing chromatin fragments were pre-cleared using protein A/G beads (Upstate) and incubated with 3-5 μg of ERG antibody or IgG overnight prior to the addition of […] of protein A/G beads for 1 hour. Antibody-bead precipitates were then washed six times and antibody/protein/DNA complexes were eluted with 150 μl IP elution buffer (50 mM […], 1% SDS). To reverse the crosslinks, the complexes were incubated in elution buffer containing 10 μg RNase A and 0.3 M NaCl at 67° C. for 4-5 hours. DNA/protein complexes were then precipitated with ethanol, air-dried, and dissolved in 100 μl of TE. Protein was then digested by incubation with proteinase K at 45° C. for 1 hour and DNA was purified using a QIAGEN PCR column according to the manufacturer's protocol. QPCR was performed using appropriate primers as previously described (Brenner et al., 2011; supra).

Data set [5] relates to PC3 (ERG fusion-negative) xenografts. Kind of data set: PC3 xenograft mouse model, tumor growth. The conditions noted are these: 25 mg/kg, compared to mutant peptidomimetic.
Description: as §1
Athymic Nude-Foxnlnu male mice were procured from Harlan Laboratories, Inc. (Indianapolis, Ind.). VCaP (2×10^6 cells) or PC3 (5×10^5 cells) were resuspended in 100 μl of saline with 50% Matrigel (BD Biosciences, Becton Drive, NJ) and implanted subcutaneously into the flank regions on both sides of the mice. Mice were anesthetized using a cocktail of xylazine (80-120 mg/kg, IP) and ketamine (10 mg/kg, IP) for chemical restraint before tumor cells implantation. For short term assays, all tumors were staged for three weeks before starting peptidomimetic treatment. […]
Tumor growth was recorded every three days using digital calipers and tumor volumes were calculated using the formula (π/6) (L×W2), where L=length of tumor and W=width. Body weight was monitored weekly over the course of the study. […] Statistical significance for Kaplan-Meier analysis was determined by the log-rank (Mantel-Cox) test. […]
Data set [6] has as its system ERG targets such as TDRD1, ARHGDIB, NDRG1 and CACNA1D. Further details: species or system mice. The conditions noted are these: mouse, in vivo. On the procedure: Total RNA was isolated from VCaP cells and tumors using Qiazol following the manufacturer's protocol (Qiagen). Quantitative PCR (QPCR) was performed using SYBR Green dye on an Applied Biosystems 7300 Real Time PCR system (Applied Biosystems) as described (Tomlins et al., 2005). Briefly, 2 μg of total RNA was reverse transcribed into cDNA using SuperScript III (Invitrogen) in the presence of random primers (Invitrogen). All reactions were performed in triplicate with SYBR Green Master Mix (Applied Biosystems) and 25 ng of forward and reverse primer according to the manufacturer's recommended thermocycling conditions, and then subjected to melt curve analysis. Threshold levels for each experiment were set during the exponential phase of the QPCR reaction using Sequence Detection Software version 1.2.2 (Applied Biosystems). The relative quantity of the target gene was calculated for each sample using the ΔΔCt method by the comparing mean Ct of the gene to the average Ct of the housekeeping gene, […] (Livak and Schmittgen, 2001). All oligonucleotide primers were synthesized by Integrated DNA Technologies (Coralville, Iowa). The primer sequences for the transcript analyzed were previously described (Brenner et al., 2011; supra).

For orientation: Kd means the equilibrium constant for the complex coming apart. Read a high Kd as a looser complex.

Where a SMILES comes first, the peptide text is derived from it. [ ]: non-standard residue; d: D form.

Consider `CC(C)C[C@@H](NC(=O)[C@H]1CCCN1C(=O)[C@H]1CCCN1C(=O)[C@@H](Cc1ccc(O)cc1)NC(=O)[C@@H](CC(C)C)NC(=O)[C@@H](Cc1ccccc1)NC(=O)[C@H](NC(=O)CNC(=O)CNC(=O)[C@@H](CCCNC(=N)N)NC(=O)[C@@H](CCCCN)NC(=O)[C@@H](CCCCN)NC(=O)[C@@H](CCCNC(=N)N)NC(=O)[C@@H](CCCNC(=N)N)NC(=O)[C@@H](CCC(N)=O)NC(=O)[C@@H](CCCNC(=N)N)NC(=O)[C@@H](CCCNC(=N)N)NC(=O)[C@@H](CCCNC(=N)N)NC(=O)CN)[C@H](C)O)C(=O)O` [RI-EIP1] (H-G[dR][dR][dR][dQ][dR][dR][dK][dK][dR]GG[dT][dF][dL][dY][dP][dP][dL]-OH), for which, in data set [1] (25 mg/kg group), the “recurrences after additional 30 days without therapy” value is on record as “no recurrences were observed”. Besides, the “tumors completely regressed with no palpable tumor” value in data set [1] (25 mg/kg, day 18) is listed as 10%. Also, the “tumors with no signs of recurrence” value in data set [1] (25 mg/kg, extended treatment, day 30) turned out to be 35%. For the same compound, the “tumor growth, additional VCaP xenograft studies” value in data set [1] (1, 5 and 25 mg/kg, effect at 25 mg/kg relative to control) is listed as “significant suppression”. Also, the VCaP tumor growth result in data set [1] (10 or 25 mg/kg per day, day 18, relative to mutant peptide, p<0.01) is on record as “dose-dependent reduction”. The same compound returned a Kd in data set [2] of 940 nM. Further, the “ERG-mediated invasion and intravasation” value in data set [3] is recorded as “dramatically blocked”. In addition, the “ERG and DNA-PKcs enrichment at ERG-regulated genomic loci” value in data set [4] is “inhibits”. Also, the “tumor size of PC3 xenografts” value in data set [5] is recorded as “no difference in tumor size”. The “gene expression of ERG targets in VCaP tumors” value in data set [6] is recorded as “inhibited”.

Source of the values: patent publication US10774122B2, “ERG targeted therapy” (The Regents of the University of Michigan, priority 2017, dated 2020).
